Earlier results on five molecules are cited in patent US9730899B2, “Controlled release pharmaceutical composition with resistance against the influence of ethanol employing a coating comprising neutral vinyl polymers and excipients” (Evonik Roehm GmbH, priority 2009, dated 2017).

Structures can show the parent of a compound that is named as a salt. Where two headings read alike, the source gives them in different places.

For the series the following is noted: USP classification, between 15° C. and 25° C.

Consider `NC(=O)N1c2ccccc2C=Cc2ccccc21` [Carbamazepine], for which the Solubility in ethanol result is recorded as “Soluble (more than 10 to 30)” and the Solubility in water entry is “Practically insoluble (more than 10.000)”.
Regarding `COc1ccc([C@@H]2Sc3ccccc3N(CCN(C)C)C(=O)[C@@H]2OC(C)=O)cc1` [Diltiazem HCl], the Solubility in water entry was “Freely soluble (from 1 to 10)”. The Solubility in ethanol result (HCl) was “Sparingly soluble (more than 30 to 100)”. Besides, the Solubility in ethanol entry (listed as diltiazem, HCl) was “sparingly soluble”.
As to `COCCc1ccc(OCC(O)CNC(C)C)cc1` (centres unmarked) [Metoprolol succinate], the Solubility in ethanol result is “Sparingly soluble (more than 30 to 100)” and the Solubility in water result was “Freely soluble (from 1 to 10)”. Also, the Solubility in ethanol entry (listed as metoprolol) is listed as “sparingly soluble”.
As to `C=CCN1CC[C@]23c4c5ccc(O)c4O[C@H]2C(=O)CC[C@@]3(O)[C@H]1C5` [Naloxone], the Solubility in ethanol result is recorded as “Slightly soluble (more than 100 to 1000)” and the Solubility in water entry is on record as “Soluble (more than 10 to 30)”. Moreover, the Solubility in ethanol result (listed as naloxone) was “slightly soluble”.
On to `Cn1c(=O)c2[nH]cnc2n(C)c1=O` [Theophylline], for which the Solubility in ethanol entry is recorded as “Sparingly soluble (more than 30 to 100)” and the Solubility in water entry is recorded as “Slightly soluble (more than 100 to 1000)”. For the same molecule, for the setting “listed as theophyllin”, the Solubility in ethanol entry was “sparingly soluble”.
